Source: article PMC12162873, “Modulating phosphatase DUSP22 with BML-260 ameliorates skeletal muscle wasting via Akt independent JNK-FOXO3a repression” (EMBO Molecular Medicine, 2025)
Several values for one entry are separate records, joined by “and”; a condition that tells them apart may be missing. Equal entries are not always repeated.

Key:
C2C12 myotubes = experiment: Real-time qPCR of gene expression in C2C12 myotubes; format: cell-based, mouse; conditions: for atrogin-1 and MuRF-1 expression, qPCR: 10 μM Dex 24 h, 12.5 μM BML-260; for DUSP22 expression, qPCR, Average / MURF-1 expression, qPCR, Average / atrogin-1 (ATRO) expression, qPCR, Average: Vehicle average = 1, n = 5; for DUSP22 expression, qPCR / MURF-1 expression, qPCR / atrogin-1 (ATRO) expression, qPCR: Vehicle average = 1, replicates
Protocol: (§1) C2C12 murine skeletal muscle myoblasts were purchased from Koram Biotech Corp. (Seoul, Republic of Korea). Prior to experiments, mycoplasma contamination was eliminated using the MycoXpert Mycoplasma Removal Reagent (MYX-B, CAPRICORN) following the manufacturer’s protocol. To ensure complete removal, all cells were passaged three times after treatment before being used in subsequent experiments. No STR profiling was recently undertaken. Myoblasts were cultured in growth media (GM), containing Dulbecco’s modified Eagle’s medium (DMEM), 10% fetal bovine serum, and 1% penicillin and streptomycin (PenStrep). C2C12 myoblasts were differentiated into myotubes at more than 80% confluence by culture in differentiation media (DM), containing DMEM supplemented with 2% horse serum and PenStrep, for 96 h. To induce atrophy, the myotubes were treated with DM plus 10 μM Dex for 24 h. BML-260 and SP600125 were purchased from Santa Cruz Biotechnology, TX, USA (cat. no. sc-223822 and sc-200635).
The StepOnePlus Real Time PCR System (Applied Biosystems, UK) was used to measure the mRNA level of the genes of interest. An AccuPower RT PreMix (Bioneer, Republic of Korea) was used to synthesize the cDNA from total RNA. The real-time PCR (qPCR) was carried out according to the manufacturer’s instructions, and the previously published protocol (Lee et al, [2020]). Details of the primers used in this study are shown in Appendix Tables S1 and S2.
(§2) Gene knockdown was carried out following the manufacturer’s protocol using a 6-well culture plate format (Thermo Fischer Scientific, Waltham, USA). Lipofectamine 3000 was used for the transfection step (Thermo Fischer Scientific, Waltham, USA). siRNA transfection was performed on day 3 of myoblast differentiation into myotubes. C2C12 myotubes and primary human myotubes were transfected with 75 pmol siRNA duplex. Details of the siRNAs used in this study are shown in Appendix Table S3.

C2C12 murine myotubes = experiment: Dex-induced C2C12 myotube atrophy: myotube diameter, fusion and differentiation indexes; format: cell-based, mouse; conditions: 10 μM Dex 24 h, 12.5 μM BML-260
Protocol: as §1
Fast myosin heavy chain 2 (MYH2) immunocytochemistry was used to visualize murine myotubes and measure myotube diameter, following the previously published protocol (Chen et al, [2016]). After mounting, fluorescence images were captured in 5 different regions using a DMI 3000 B microscope (Leica, Germany), and analyzed using the NIH imaging software Image J 64. 100 myotubes containing at least three nuclei were measured in each experimental group. Myotubes were primarily examined in the central area of each well, as opposed to randomly selected fields. The mid-point of the myotube was used to measure the diameter. For nuclear counts, we chose myotubes containing three or more nuclei. The observer was aware of the treatment conditions.
To assess myoblast fusion into multinucleate myotubes, nuclei number within fast myosin (MYH2)-positive cells were measured using the NIH imaging software Image J 64. The differentiation index was calculated as the percentage of nuclei in fast myosin (MYH2)-positive cells (nuclei in myotubes/total nuclei). Myotubes were classified as MYH-positive cells containing at least 4 nuclei. Myotubes were measured in groups of at least 100, with at least 7500 nuclei measured in each group.
as §2

C57BL/6J mice = experiment: Dex treatment mouse model of skeletal muscle atrophy, BML-260 treatment; format: in vivo; conditions: for mean body weight: 15 mg/kg Dex, 5 mg/kg BML-260, IP daily
Protocol: The Dex model of muscle atrophy was based on the previously published protocol (Kim et al, [2022]). In brief, 12-week-old male C57BL/6J mice were treated as follows: 1) Vehicle (DMSO in PBS pH 7.4 with 5% Tween 80) alone, 2) 15 mg/kg Dex dissolved in vehicle, 3) 15 mg/kg Dex and 5 mg/kg BML-260 (n = 5 per group). Mice were treated daily by intraperitoneal (IP) injection for 14 d and then assessed for muscle condition. The 5 mg/kg in vivo dose was selected based on a previous study that carried out bilateral injection of BML-260 into the fat pads of male 8-week-old C57BL/6J mice (Feng et al, [2019]).
Grip strength was measured using the BIO-GS3 device (Bioseb, FL, USA). Mice were placed onto the grid with all four paws attached and gently pulled backwards to measure the grip strength until the grid was released. The maximum grip value, used to represent muscle force, was calculated using 3 trials with an interval of 30 s.
Muscle fatigue was measured the previously described protocol (Chiu et al, [2018]), with two different models using the Rotarod. One was the constant model and the other was the accelerating model that is inherent in the rotarod device. In brief, the mice were accommodated to training before the commencement of the fatigue task using an accelerating rotarod (Ugo Basile, Italy). The mice were trained at a constant speed of 13 rpm for 15 min. After a recovery period of 15 min, the mice were placed on the rotarod adjusted to accelerate from 13 to 25 rpm in 3 min for 15 min. 24 h later, the muscle fatigue test was carried out with speeds ramping from 13 to 25 rpm in 3 min, and maintained at 25 rpm for a 30 min interval. Latency to fall off the rotarod was measured for each mouse. A fatigued mouse was classified as falling off 4 times within a 1 min period, which also terminated the test.
Mice were anesthetized using ketamine (22 mg/kg; Yuhan, Republic of Korea) and xylazine (10 mg/kg; Bayer, Republic of Korea) in saline by IP injection. The quadriceps, gastrocnemius, soleus and TA muscles were then dissected and weighed. For histological analysis, the muscles were fixed by overnight incubation with 4% paraformaldehyde in PBS pH 7.4 at 4 °C. Paraffin sectioning and H&E staining were provided by the Animal Housing Facility, Gwangju Institute of Science and Technology, Republic of Korea (5 µm muscle sections using a Thermo Scientific HistoStar (Thermofisher). H&E staining was carried out with a kit (Merck, Germany)). For immunohistochemistry, TA muscle sections were permeabilized for 15 min (PBS with 0.5% Triton X-100), blocked for 1 h (5% BSA) and incubated with the primary antibody overnight at 4 °C (a list of primary and secondary antibodies used in this study are provided in Appendix Tables S4 and S5, respectively). After washing with PBS 3 times for 5 min, the sections were incubated with the secondary antibody at RT for 1 h. The nuclei were counterstained with DAPI in ProLong™ Gold Antifade Mountant (Invitrogen, P36935). Digital images were acquired with Leica DM 2500 (Leica Microsystems). Cross sectional area (CSA) and fiber size distribution was measured using the NIH imaging software Image J 64. To CSA and size distribution of different fiber types was calculated in 4 muscle section as follows: type 2 A: 30–40 fibers measured; type 2B: at least 100 fibers measured; type 2X: 30–40 fibers measured.

[1] = C2C12 myotubes treated with Dex
[2] = dexamethasone-treated C2C12 myotubes
[3] = dexamethasone-treated C2C12 myotubes, listed as BML
[4] = 15 mg/kg Dex and 5 mg/kg BML-260, IP daily 14 d

SMILES: C[C@@H]1C[C@H]2[C@@H]3CCC4=CC(=O)C=C[C@]4(C)[C@@]3(F)[C@@H](O)C[C@]2(C)[C@@]1(O)C(=O)CO [Dex, dexamethasone]
- atrogin-1 and MuRF-1 expression, qPCR (C2C12 myotubes): upregulated
- DUSP22 expression in myotubes undergoing Dex-induced atrophy, RNA Seq and qPCR (C2C12 myotubes; C2C12 myotubes): upregulated
- DUSP22 expression, qPCR, Average (C2C12 myotubes; [1]): 1.867
- DUSP22 expression, qPCR (C2C12 myotubes; [1]): 1.751 and 1.762 and 2.076 and 2.045 and 1.699
- DUSP22 expression, qPCR, Average (C2C12 myotubes; [2]): 1.628
- MURF-1 expression, qPCR, Average (C2C12 myotubes; [2]): 2.64
- atrogin-1 (ATRO) expression, qPCR, Average (C2C12 myotubes; [2]): 4.291
- DUSP22 expression, qPCR (C2C12 myotubes; [2]): 2.068 and 1.836 and 1.276 and 1.511 and 1.449
- MURF-1 expression, qPCR (C2C12 myotubes; [2]): 3.398 and 2.859 and 1.96 and 2.287 and 2.697
- atrogin-1 (ATRO) expression, qPCR (C2C12 myotubes; [2]): 4.546 and 3.961 and 4.048 and 4.199 and 4.699
- myotube atrophy (myotube diameter) (C2C12 murine myotubes): underwent atrophy
- mean body weight (C57BL/6J mice): significantly reduced
- DUSP22 expression, qPCR (C57BL/6J mice; TA muscle of C57BL/6 mice treated with Dex, Vehicle average = 1, individual animals): 2.47 and 1.789 and 1.328 and 1.032

SMILES: O=C(O)c1ccc(N2C(=O)C(=Cc3ccccc3)SC2=S)cc1 (stereo in doubt) [BML-260]
- atrogin-1 and MuRF-1 expression, qPCR (C2C12 myotubes): downregulated
- additional effect on Dex-induced atrogene expression in the presence of DUSP22 gene knockdown (C2C12 myotubes; Dex-treated C2C12 myotubes): no significant additional effect
- DUSP22 expression, qPCR, Average (C2C12 myotubes; [2]): 1.419
- MURF-1 expression, qPCR, Average (C2C12 myotubes; [2]): 2.125
- atrogin-1 (ATRO) expression, qPCR, Average (C2C12 myotubes; [2]): 2.99
- DUSP22 expression, qPCR (C2C12 myotubes; [3]): 1.3832 and 1.906 and 1.483 and 1.176 and 1.145
- MURF-1 expression, qPCR (C2C12 myotubes; [3]): 2.278 and 2.851 and 2.228 and 1.487 and 1.782
- atrogin-1 (ATRO) expression, qPCR (C2C12 myotubes; [3]): 3.37 and 3.403 and 3.232 and 2.06 and 2.886
- myotube atrophy (myotube diameter) (C2C12 murine myotubes): prevented myotube atrophy
- myotube fusion and differentiation indexes (C2C12 murine myotubes): recovered
- proportion of larger-sized myotubes (C2C12 murine myotubes): maintained the proportion of larger-sized myotubes
- TA muscle mass (C57BL/6J mice; [4]): increased
- grip strength (C57BL/6J mice; [4]): increased the mean grip strength value, but it did not achieve statistical significance
- myofiber area distribution (C57BL/6J mice; [4]): shifted the myofiber area distribution towards larger sized fibers
- rotarod muscle performance, acceleration and constant models (C57BL/6J mice; [4]): significantly recovered muscle performance
- upregulation of atrogin-1, MuRF-1 and DUSP22 in TA muscle, western blot (C57BL/6J mice; [4]): inhibited
- myofiber CSA (C57BL/6J mice; 15 mg/kg Dex and 5 mg/kg BML-260, IP daily 14 d, TA muscle per text): significantly increased
- mean body weight (C57BL/6J mice): recovered
